# Measurements published in publication PMC12198407, “Preclinical and first-in-human of purinostat mesylate, a novel selective HDAC I/IIb inhibitor, in relapsed/refractory multiple myeloma and lymphoma” (Signal Transduction and Targeted Therapy, 2025).
# Where two headings read alike, the source gives them in different places.
# Columns and labels:
# CYP2B6 = assay: CYP induction, cryopreserved human liver cells; type: in vitro ADME; conditions: 0.0500, 0.500, 5.00 µM; three donors
# CYP2C8 = biological target: T1, CYP2C8 (Homo sapiens, UniProt P10632); assay: CYP inhibition, human liver microsomes; type: in vitro ADME
# T1 construct: human liver microsomal cytochrome P450 isoenzymes; from tissue; host or cells: human liver microsomes
# T1 sequence (P10632 whole entry): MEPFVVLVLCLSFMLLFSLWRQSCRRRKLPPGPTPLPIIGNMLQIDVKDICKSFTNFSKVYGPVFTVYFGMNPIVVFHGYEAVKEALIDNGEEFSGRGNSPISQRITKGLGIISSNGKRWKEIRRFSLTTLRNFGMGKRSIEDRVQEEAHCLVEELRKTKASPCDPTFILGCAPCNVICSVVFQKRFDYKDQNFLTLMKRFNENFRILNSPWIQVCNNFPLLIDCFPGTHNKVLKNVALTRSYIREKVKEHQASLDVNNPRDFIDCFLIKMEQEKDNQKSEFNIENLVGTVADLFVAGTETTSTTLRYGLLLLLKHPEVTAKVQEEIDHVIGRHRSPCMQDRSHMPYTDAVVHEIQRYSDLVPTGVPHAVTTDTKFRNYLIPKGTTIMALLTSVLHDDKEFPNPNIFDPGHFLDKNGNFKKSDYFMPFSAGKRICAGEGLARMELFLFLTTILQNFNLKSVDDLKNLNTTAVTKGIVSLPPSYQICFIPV
# [1] = Intravenous vascular irritation test; type: in vivo, rabbits; conditions: 0.204 mg/mL, 10 mL/kg, 5 days
# Procedure: This experiment included a blank formulation group of injectable Purinostat Mesylate and an injectable Purinostat Mesylate group, with 8 Japanese White Rabbits in each group, evenly divided by sex. The injectable Purinostat Mesylate group received an intravenous infusion of 0.204 mg/mL (the maximum intended clinical concentration) at a volume of 10 mL/kg via the right ear marginal vein. The blank formulation group received an intravenous infusion of hydroxypropyl beta-cyclodextrin at the same dose as the injectable Purinostat Mesylate group. Each rabbit in both groups also received an equal volume of 0.9% sodium chloride injection via the left ear marginal vein as a self-control. The administration was performed once daily for a total of 5 consecutive days, with the first day of administration defined as Day 1 of the experiment. During the study, the general condition of the rabbits and the injection site were monitored daily. Approximately 72 hours and 16 days after administration, 4 rabbits from each group were euthanized for gross anatomical observation of the injection site, and blood vessels and surrounding tissues from the injection site were collected for histopathological examination.
# Solubility of the API = type: physicochemical
# 5TGM1-luc myeloma = assay: 5TMM mouse model, survival and serum calcium; type: in vivo, C57BL/KawRij mice; parameters: serum calcium level: unit not given here; conditions: 10 mg/kg
# Procedure: The cMYC-KRAS12V-induced plasmacytoma mouse model in BALB/c (GemPharmatech Co., Ltd., Nanjing, China) was established as previously described.[33] On day 28 or 35 post bone marrow transplantation, recipients received various treatments. The 5TMM mouse model was established as previously described.[55] The 5TGM1-luc cells were intravenously injected into 6-week-old C57BL/KawRij mice (Harlan Co. Netherlands) with 2 × 10^6 cells per mouse. After three weeks, mice were treated with vehicle or PM 10 mg/kg. Serum Ca^2+ levels were monitored weekly for three weeks after the start of administration. Kaplan-Meier survival curves were generated for each treatment group. Additionally, the 5TMM mouse model studying PM’s effects on immune response and bone destruction involved randomizing mice into vehicle and PM (10 mg/kg) groups one week after inoculation. T cell subsets were analyzed by flow cytometry 24 h after a single dose and 1 month after vehicle or PM treatment. The mice were sacrificed after 1 month of treatment, and the bone destruction was detected by Micro-CT.
# [2] = Metabolites in dog plasma; type: in vivo, Beagle dogs; conditions: male and female dogs
# Excerpt: Four metabolites of Purinostat Mesylate were detected in plasma samples from both male and female dogs, namely M4 (MW = 636.66, unknown product), M8 (MW = 474.52, reduction product), M13 (MW = 505.54, methylation product), and M16 (MW = 475.50, hydrolysis product). The primary metabolic pathways involved hydrolysis, methylation, and reduction, with no significant gender differences observed. The parent compound, Purinostat Mesylate, accounted for more than 35% of the UV absorption peak area in the plasma samples from both male and female dogs, indicating it is one of the major components. Purinostat Mesylate is primarily metabolized in the plasma of male and female dogs through hydrolysis, methylation, and reduction pathways. A possible metabolic pathway structure diagram is shown below: […]
# HDAC7 = HDAC7 (Homo sapiens, UniProt Q8WUI4); assay: HDAC enzyme activity in vitro; type: biochemical
# Sequence of HDAC7 (Q8WUI4 whole entry): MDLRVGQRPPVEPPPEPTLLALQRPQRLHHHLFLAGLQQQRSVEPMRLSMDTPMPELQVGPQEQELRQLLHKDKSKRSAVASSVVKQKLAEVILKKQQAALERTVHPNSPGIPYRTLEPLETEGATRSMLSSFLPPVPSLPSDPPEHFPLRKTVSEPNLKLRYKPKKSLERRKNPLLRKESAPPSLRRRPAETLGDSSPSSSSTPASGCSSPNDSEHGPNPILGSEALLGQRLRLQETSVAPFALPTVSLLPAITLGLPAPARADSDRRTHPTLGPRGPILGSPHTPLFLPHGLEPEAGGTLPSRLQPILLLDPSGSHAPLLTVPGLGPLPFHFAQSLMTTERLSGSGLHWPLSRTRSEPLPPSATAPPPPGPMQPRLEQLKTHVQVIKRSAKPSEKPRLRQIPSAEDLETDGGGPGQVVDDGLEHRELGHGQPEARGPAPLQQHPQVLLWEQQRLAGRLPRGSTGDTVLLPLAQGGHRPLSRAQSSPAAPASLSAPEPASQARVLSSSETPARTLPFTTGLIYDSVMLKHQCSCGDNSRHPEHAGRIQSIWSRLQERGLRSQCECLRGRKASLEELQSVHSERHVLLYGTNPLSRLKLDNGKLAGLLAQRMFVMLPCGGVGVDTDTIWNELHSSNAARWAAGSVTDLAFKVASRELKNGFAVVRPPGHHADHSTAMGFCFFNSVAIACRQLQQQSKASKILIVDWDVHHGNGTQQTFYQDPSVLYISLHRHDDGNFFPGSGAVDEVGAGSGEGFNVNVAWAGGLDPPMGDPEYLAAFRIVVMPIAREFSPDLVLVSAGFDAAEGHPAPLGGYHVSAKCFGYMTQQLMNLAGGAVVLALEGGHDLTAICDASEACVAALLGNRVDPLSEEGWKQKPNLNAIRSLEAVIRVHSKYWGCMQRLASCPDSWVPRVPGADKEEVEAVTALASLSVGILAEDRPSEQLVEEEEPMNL
# [3] = tested on: class I HDAC substrates histone H3 and H4 in SUDHL-6, Daudi, Raji, Ramos, RPMI-8226; assay: Cellular acetylation of histone H3 and H4; type: cell-based, human
# Excerpt: The results of these cell experiments were consistent with the in vitro enzyme activity assay results.
# CYP2C19 = biological target: T2, CYP2C19 (Homo sapiens, UniProt P33261); assay: CYP inhibition, human liver microsomes; type: in vitro ADME
# T2 construct: human liver microsomal cytochrome P450 isoenzymes; from tissue; host or cells: human liver microsomes
# T2 sequence (P33261 whole entry): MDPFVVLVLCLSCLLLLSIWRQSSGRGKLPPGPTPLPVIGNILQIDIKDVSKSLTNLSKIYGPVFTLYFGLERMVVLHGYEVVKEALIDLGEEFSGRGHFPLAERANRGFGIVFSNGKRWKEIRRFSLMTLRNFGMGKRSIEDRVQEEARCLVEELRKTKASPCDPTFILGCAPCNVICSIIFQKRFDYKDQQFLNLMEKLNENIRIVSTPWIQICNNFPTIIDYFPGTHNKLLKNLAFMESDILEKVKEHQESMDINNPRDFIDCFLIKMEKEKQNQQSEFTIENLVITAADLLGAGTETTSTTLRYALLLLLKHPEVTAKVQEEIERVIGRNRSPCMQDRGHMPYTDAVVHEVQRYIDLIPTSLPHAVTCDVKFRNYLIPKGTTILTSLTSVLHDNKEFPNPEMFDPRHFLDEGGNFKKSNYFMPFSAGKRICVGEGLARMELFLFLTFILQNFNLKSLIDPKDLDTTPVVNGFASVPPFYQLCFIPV
# HDAC9 = HDAC9 (Homo sapiens, UniProt Q9UKV0); assay: HDAC enzyme activity in vitro; type: biochemical
# Sequence of HDAC9 (Q9UKV0 whole entry): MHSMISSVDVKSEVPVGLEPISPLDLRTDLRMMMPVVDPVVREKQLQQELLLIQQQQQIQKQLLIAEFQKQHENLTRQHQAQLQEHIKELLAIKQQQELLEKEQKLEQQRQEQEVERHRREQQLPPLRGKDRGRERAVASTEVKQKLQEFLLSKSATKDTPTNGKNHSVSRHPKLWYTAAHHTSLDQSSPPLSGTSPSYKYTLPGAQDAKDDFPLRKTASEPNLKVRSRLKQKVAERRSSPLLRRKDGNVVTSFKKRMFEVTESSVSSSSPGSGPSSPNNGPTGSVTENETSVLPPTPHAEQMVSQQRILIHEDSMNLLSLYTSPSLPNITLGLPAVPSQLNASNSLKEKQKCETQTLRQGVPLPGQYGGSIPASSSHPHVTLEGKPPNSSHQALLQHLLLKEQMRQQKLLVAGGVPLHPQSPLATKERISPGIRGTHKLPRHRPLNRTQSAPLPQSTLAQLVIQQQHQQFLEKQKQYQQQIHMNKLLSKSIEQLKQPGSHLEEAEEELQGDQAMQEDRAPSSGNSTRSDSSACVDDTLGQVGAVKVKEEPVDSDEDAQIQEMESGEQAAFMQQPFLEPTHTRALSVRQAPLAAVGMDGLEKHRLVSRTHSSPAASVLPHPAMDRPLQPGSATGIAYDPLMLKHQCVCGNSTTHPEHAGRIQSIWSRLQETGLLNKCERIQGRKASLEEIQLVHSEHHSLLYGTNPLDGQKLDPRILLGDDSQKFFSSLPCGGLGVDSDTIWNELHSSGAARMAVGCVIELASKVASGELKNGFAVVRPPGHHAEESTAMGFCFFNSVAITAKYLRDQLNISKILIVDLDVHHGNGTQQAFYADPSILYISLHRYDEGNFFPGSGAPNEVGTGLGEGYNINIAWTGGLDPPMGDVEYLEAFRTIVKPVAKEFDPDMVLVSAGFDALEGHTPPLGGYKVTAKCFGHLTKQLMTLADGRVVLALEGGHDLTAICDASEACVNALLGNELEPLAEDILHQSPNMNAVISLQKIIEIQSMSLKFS
# [4] = tested on: mouse BM-derived osteoclasts (M-CSF, RANKL); assay: Osteoclast formation, TRAP staining; type: cell-based, C57BL/6 mice; conditions: M-CSF and RANKL induced
# Procedure: Primary mouse BM cells were collected from 6-to-8 weeks C57BL/6 mice, and 1.0 × 10^5 cells were seeded into 48-well plates with α-MEM containing 10% FBS and 40 ng/mL M-CSF (PeproTech, catalog # 315-02) for 3 days to recruit macrophage and then induce osteoclast differentiation plus 50 ng/mL RANKL (R&D, catalog # 462-TEC-010/CF) with or without indicated concentration of PM for 4 days. Half-media changes were carried out every 2 days. The TRAP staining kit was purchased from Sigma-Aldrich (CS0704), and TRAP staining was performed according to the kit instructions.
# [5] = tested on: hematological tumor cells; assay: Proliferation, MTT or Alamar Blue; type: cell-based; conditions: Homo sapiens
# [6] = Fertility, embryo and fetal developmental toxicity test; parameters: species or system SD rats; conditions: SD, rat, in vivo, intravenous
# Procedure: Male SD rats were administered intravenous injections of Purinostat Mesylate at doses of 3, 10, and 20 mg/kg every two days from 4 weeks prior to mating until the end of mating. Female SD rats received the same treatment from 2 weeks prior to mating until day 7 of pregnancy. The no observed adverse effect level (NOAEL) for males was less than 3 mg/kg, while for females it was 20 mg/kg. The NOAEL for reproductive toxicity in both male and female rats was 3 mg/kg, and the NOAEL for early embryonic development was less than 3 mg/kg.
# Procedure for T315I Bcr-Abl B-ALL: Subcutaneous or orthotopic tumor models were established using NOD/SCID mice for human-derived lymphoma, multiple myeloma cell lines, and samples from clinical B-ALL patients. The Ighmyc transgenic mice and primary B-ALL models were induced using C57 mouse strains. The experimental doses of Purinostat Mesylate include 1.25, 2.5, 5, 10, and 20 mg/kg, administered via tail vein (i.v.) three times a week. In each model experiment, the positive control drugs included the HyperCVAD regimen (cyclophosphamide, doxorubicin, vincristine, dexamethasone, methotrexate, and cytarabine) simulating clinical treatment for double-hit lymphoma, the CODOX regimen (cyclophosphamide, doxorubicin, vincristine, methotrexate, and cytarabine) simulating clinical treatment for Burkitt lymphoma, as well as lenalidomide (L), bortezomib (B), dexamethasone (D), and LBH589 lactate, which is marketed for relapsed or refractory multiple myeloma. In the subcutaneous tumor model experiments using human-derived tumor cell lines, the inhibitory effect of Purinostat Mesylate on tumors was assessed by measuring tumor volume (TV), tumor weight, relative tumor volume (RTV), and relative tumor growth rate (T/C). Additionally, in some model experiments, satellite groups were designed, where animals in these groups were not sacrificed at the same treatment endpoint and received extended treatment. […]
structure (smiles),measurement,setting,value
"CN(Cc1nc2c(N3CCOCC3)nc(-c3ccc(N)cc3)nc2n1C)c1ncc(C(=O)NO)cn1.CS(=O)(=O)O [PM, 2-(((2-(4-Aminophenyl)-9-methyl-6-(4-morpholinyl)-9H-purine-8-yl)methyl)methylamino)-N-hydroxy-5-pyrimidine-carboxamide Mesylate]",induction of CYP2B6,CYP2B6,did not act as an inducer
same,IC50,CYP2C8,> 10000 nM
same,irritation at the injection site,[1],did not cause irritation at the injection site
same,Solubility,Solubility of the API; 0.1 mol/L hydrochloric acid solution,practically insoluble
same,Solubility,Solubility of the API; 0.1 mol/L sodium hydroxide solution,very slightly soluble
same,Solubility,Solubility of the API; dimethyl sulfoxide,soluble
same,Solubility,Solubility of the API; dimethylformamide,slightly soluble
same,Solubility,"Solubility of the API; ethanol, ethyl acetate, or chloroform",practically insoluble
same,Solubility,Solubility of the API; methanol,very slightly soluble
same,serum calcium level,"5TGM1-luc myeloma; two weeks, vehicle 20.93",8.972
same,survival,5TGM1-luc myeloma; vehicle 50 days,86 days
same,share of UV absorption peak area in plasma samples,[2],more than 35%
same,IC50,HDAC7,590 nM
same,concentration inducing increased acetylation of histone H3 and H4,[3],0.3 to 1 nM
same,IC50,CYP2C19,> 10000 nM
same,IC50,HDAC9,622 nM
same,median survival time,"T315I Bcr-Abl B-ALL; 5 mg/kg, solvent control 44 days",greater than 80 days
same,median survival time,T315I Bcr-Abl B-ALL; 10 mg/kg,greater than 80 days
same,mature osteoclast formation (TRAP staining),[4],obviously suppressed mature osteoclast cells formation
same,IC50,"[5]; read-out: IC50, hematological tumor cells",< 10 nM
same,IC50,"[5]; some cell lines, read-out: IC50, hematological tumor cell lines",< 1 nM
same,NOAEL,[6],< 3 mg/kg
same,NOAEL,[6]; both sexes,3 mg/kg
same,NOAEL,[6]; female,20 mg/kg
same,NOAEL,[6]; male,< 3 mg/kg
